These are literature values, as cited in patent US20040038863A1, “Medical indication” (priority 2002, published 2004).

For the data set the following is noted: in postmenopausal women; background value used to set the washout period.

For `C=C1C[C@@H]2[C@H](CC[C@]3(C)C(=O)CC[C@@H]23)[C@@]2(C)C=CC(=O)C=C12` [exemestane, 6-methylenandrosta-1,4-diene-3,17-dione], the terminal elimination half-life entry is reported as “approximately 24 hours”.
